This passage reports IC50 and Ki results from patent publication US11155557B2, “Pyrazolopyrimidine compounds and methods of use thereof” (Genentech, Inc., priority 2016, dated 2021).

Experiment [1] deals with JAK1-dependent STAT6 phosphorylation in BEAS-2B human bronchial epithelial cells. The experiment can be described thus: JAK1 pathway assay: IL-13 stimulated STAT6 phosphorylation in BEAS-2B cells. The experiment is classed as cell-based. The note with it: Homo sapiens, BEAS-2B, read-out: IL-13 p-STAT6 BEAS-2B IC50. The method, boiled down:
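BEAS-2B bronchial epithelial cells plated one day before, run in complete growth medium. Phospho-STAT6 in lysates measured by MesoScale Discovery; EC50 reported.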

Experiment [2] has as its target isolated recombinant JAK2 kinase domain (Homo sapiens (Human), UniProt O60674). Nature of the experiment: JAK2 enzyme assay (Caliper LabChip, Ki).
Description: JAK Enzyme Assays were Carried Out as Follows:
The activity of the isolated recombinant JAK1 and JAK2 kinase domain was measured by monitoring phosphorylation of a peptide derived from JAK3 ([sequence] fluorescently labeled on the N-terminus with 5-carboxyfluorescein) using the Caliper LabChip R technology (Caliper Life Sciences, Hopkinton, Mass.). […] After termination of the kinase reaction, the proportion of phosphorylated product was determined as a fraction of total peptide substrate using the Caliper LabChip R 3000 according to the manufacturer's specifications.
The target in experiment [3] is isolated recombinant JAK1 kinase domain (Homo sapiens (Human), UniProt P23458). Nature of the experiment: JAK1 enzyme assay (Caliper LabChip, Ki). It counts as biochemical. As to the method: The activity of the isolated recombinant JAK1 and JAK2 kinase domain was measured by monitoring phosphorylation of a peptide derived from JAK3 ([…] fluorescently labeled on the N-terminus with 5-carboxyfluorescein) using the Caliper LabChip R technology (Caliper Life Sciences, Hopkinton, Mass.).
Sequence of isolated recombinant JAK1 kinase domain (P23458 875-1153): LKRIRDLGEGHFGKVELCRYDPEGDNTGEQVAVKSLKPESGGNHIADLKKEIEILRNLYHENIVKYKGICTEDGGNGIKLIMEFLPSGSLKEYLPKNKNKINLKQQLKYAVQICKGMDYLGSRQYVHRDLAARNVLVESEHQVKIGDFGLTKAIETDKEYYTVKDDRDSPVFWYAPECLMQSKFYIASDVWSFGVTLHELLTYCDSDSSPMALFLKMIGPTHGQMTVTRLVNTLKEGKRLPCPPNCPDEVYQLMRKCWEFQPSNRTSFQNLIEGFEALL

The mark [4] stands for this setting: BEAS-2B cells, IL-13 stimulation.

For orientation: IC50 means the concentration needed to halve the response being measured. Usually Ki stands for the equilibrium dissociation constant of an inhibitor or competing ligand from its target.

SMILES strings stand for the structures. Read-outs that look alike come from different tables or passages of the source.

Sequence of isolated recombinant JAK2 kinase domain (O60674 849-1124): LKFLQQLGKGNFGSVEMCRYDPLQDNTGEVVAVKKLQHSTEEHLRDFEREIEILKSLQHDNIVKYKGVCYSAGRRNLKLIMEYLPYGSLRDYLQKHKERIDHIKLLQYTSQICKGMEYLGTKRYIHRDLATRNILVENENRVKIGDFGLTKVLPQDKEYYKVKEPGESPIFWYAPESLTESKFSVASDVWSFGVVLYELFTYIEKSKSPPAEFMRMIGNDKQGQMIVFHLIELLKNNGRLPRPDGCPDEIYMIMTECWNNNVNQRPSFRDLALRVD

On to `CCN1CCN(C(=O)Cn2cc(NC(=O)c3cnn4cccnc34)c(-c3cc4cn[nH]c4cc3OC(F)F)n2)CC1` [Example 53, N-[3-[6-(difluoromethoxy)-1H-indazol-5-yl]-1-[2-(4-ethylpiperazin-1-yl)-2-oxo-ethyl]pyrazol-4-yl]pyrazolo[1,5-a]pyrimidine-3-carboxamide], for which the half-maximal inhibitory concentration (IC50) in experiment [1] (setting [4]) was found to be 88 nM. Also, the figures for the inhibition constant Ki in experiment [2] (read-out: JAK2 Ki) and in experiment [3] were 0.39 nM and 0.25 nM, respectively.

With `COc1cc2ccsc2cc1-c1nn(CC(=O)N2CCC(N3CCOCC3)CC2)cc1NC(=O)c1cnn2cccnc12` [Example 54, N-[3-(5-methoxybenzothiophen-6-yl)-1-[2-(4-morpholino-1-piperidyl)-2-oxo-ethyl]pyrazol-4-yl]pyrazolo[1,5-a]pyrimidine-3-carboxamide], in experiment [1] (setting [4]), the IC50 came to 46 nM. The inhibition constant (Ki) in experiment [2] (read-out: JAK2 Ki) amounted to 2.1 nM; in experiment [3] it was 0.92 nM.

Regarding `N#Cc1cc2cc(OC(F)F)c(-c3nn(CC(=O)N4CCC(N5CCOCC5)CC4)cc3NC(=O)c3cnn4cccnc34)cc2s1` [Example 55, N-[3-[2-cyano-5-(difluoromethoxy)benzothiophen-6-yl]-1-[2-(4-morpholino-1-piperidyl)-2-oxo-ethyl]pyrazol-4-yl]pyrazolo[1,5-a]pyrimidine-3-carboxamide], the 50% inhibitory concentration (IC50) in experiment [1] (setting [4]) turned out to be 20 nM. Moreover, the inhibitory constant (Ki) in experiment [2] (read-out: JAK2 Ki) and in experiment [3] was 0.41 nM each time.

Regarding `NC(=O)c1cc2cc(OC(F)F)c(-c3nn(CC(=O)N4CCC(N5CCOCC5)CC4)cc3NC(=O)c3cnn4cccnc34)cc2s1` [Example 56, N-[3-[2-carbamoyl-5-(difluoromethoxy)benzothiophen-6-yl]-1-[2-(4-morpholino-1-piperidyl)-2-oxo-ethyl]pyrazol-4-yl]pyrazolo[1,5-a]pyrimidine-3-carboxamide], in experiment [1] (setting [4]), the IC50 is > 333 nM. The values for the inhibition constant (Ki) in experiment [2] (read-out: JAK2 Ki) and in experiment [3] were 0.37 nM and 0.39 nM, respectively.

In the case of `O=C(Nc1cn(CC(=O)N2CCC(N3CCOCC3)CC2)nc1-c1cc2ccccc2cc1OC(F)F)c1cnn2cccnc12` [Example 57, N-[3-[3-(difluoromethoxy)-2-naphthyl]-1-[2-(4-morpholino-1-piperidyl)-2-oxo-ethyl]pyrazol-4-yl]pyrazolo[1,5-a]pyrimidine-3-carboxamide], the half-inhibitory concentration (IC50) in experiment [1] (setting [4]) was 17 nM. For the same compound, the Ki in experiment [2] (read-out: JAK2 Ki) is 0.87 nM; in experiment [3], 0.56 nM.

As for `O=C(Nc1cn(CC(=O)N2CCC(N3CCOCC3)CC2)nc1-c1cc2c(cc1OC(F)F)NCCS2)c1cnn2cccnc12` [Example 58, N-[3-[6-(difluoromethoxy)-3,4-dihydro-2H-1,4-benzothiazin-7-yl]-1-[2-(4-morpholino-1-piperidyl)-2-oxo-ethyl]pyrazol-4-yl]pyrazolo[1,5-a]pyrimidine-3-carboxamide], the IC50 in experiment [1] (setting [4]) turned out to be 54 nM. Also, the values for the Ki in experiment [2] (read-out: JAK2 Ki) and in experiment [3] were 0.22 nM and 0.19 nM, respectively.

As for `O=C(Nc1cn(CC(=O)N2CCC(CN3CCOCC3)CC2)nc1-c1cc2c(cc1OC(F)F)NCCS2)c1cnn2cccnc12` [Example 59, N-[3-[6-(difluoromethoxy)-3,4-dihydro-2H-1,4-benzothiazin-7-yl]-1-[2-[4-(morpholinomethyl)-1-piperidyl]-2-oxo-ethyl]pyrazol-4-yl]pyrazolo[1,5-a]pyrimidine-3-carboxamide], the IC50 in experiment [1] (setting [4]) worked out at 25 nM. For the same compound, the figures for the inhibition constant Ki in experiment [2] (read-out: JAK2 Ki) and in experiment [3] were 0.23 nM and 0.22 nM, respectively.

Regarding `N#Cc1cc2cc(OC(F)F)c(-c3nn(CC(=O)N4CCC(CN5CCOCC5)CC4)cc3NC(=O)c3cnn4cccnc34)cc2s1` [Example 60, N-[3-[2-cyano-5-(difluoromethoxy)benzothiophen-6-yl]-1-[2-[4-(morpholinomethyl)-1-piperidyl]-2-oxo-ethyl]pyrazol-4-yl]pyrazolo[1,5-a]pyrimidine-3-carboxamide], the IC50 in experiment [1] (setting [4]) came to 12 nM. Besides, the Ki in experiment [2] (read-out: JAK2 Ki) turned out to be 0.35 nM; in experiment [3], 0.36 nM.

Take `NC(=O)c1cc2cc(OC(F)F)c(-c3nn(CC(=O)N4CCC(CN5CCOCC5)CC4)cc3NC(=O)c3cnn4cccnc34)cc2s1` [Example 61, N-[3-[2-carbamoyl-5-(difluoromethoxy)benzothiophen-6-yl]-1-[2-[4-(morpholinomethyl)-1-piperidyl]-2-oxo-ethyl]pyrazol-4-yl]pyrazolo[1,5-a]pyrimidine-3-carboxamide]: the 50% inhibitory concentration (IC50) in experiment [1] (setting [4]) was > 333 nM. Besides, the Ki in experiment [2] (read-out: JAK2 Ki) turned out to be 0.78 nM; in experiment [3] it was 0.64 nM.

For the compound `NC(=O)c1cc2cc(OC(F)F)c(-c3nn(CC(=O)N4CCC(=O)CC4)cc3NC(=O)c3cnn4cccnc34)cc2s1` [Example 62, N-[3-[2-carbamoyl-5-(difluoromethoxy)benzothiophen-6-yl]-1-[2-oxo-2-(4-oxo-1-piperidyl)ethyl]pyrazol-4-yl]pyrazolo[1,5-a]pyrimidine-3-carboxamide], in experiment [1], the IC50 was > 333 nM. The inhibition constant (Ki) in experiment [2] (read-out: JAK2 Ki) is 0.24 nM; in experiment [3], 0.38 nM.

Take `CN(CCC#N)C1CCN(C(=O)Cn2cc(NC(=O)c3cnn4cccnc34)c(-c3cc4ccccc4cc3OC(F)F)n2)CC1` [Example 63, N-[1-[2-[4-[2-cyanoethyl(methyl)amino]-1-piperidyl]-2-oxo-ethyl]-3-[3-(difluoromethoxy)-2-naphthyl]pyrazol-4-yl]pyrazolo[1,5-a]pyrimidine-3-carboxamide]: the IC50 in experiment [1] (setting [4]) came to 14 nM. Moreover, the Ki in experiment [2] (read-out: JAK2 Ki) turned out to be 0.58 nM; in experiment [3] it was 0.4 nM.

For the compound `N#CC1(CNC2CCN(C(=O)Cn3cc(NC(=O)c4cnn5cccnc45)c(-c4cc5sc(C(N)=O)cc5cc4OC(F)F)n3)CC2)CC1` [Example 64, N-[3-[2-carbamoyl-5-(difluoromethoxy)benzothiophen-6-yl]-1-[2-[4-[(1-cyanocyclopropyl)methylamino]-1-piperidyl]-2-oxo-ethyl]pyrazol-4-yl]pyrazolo[1,5-a]pyrimidine-3-carboxamide], the IC50 in experiment [1] (setting [4]) is > 1000 nM. Besides, the Ki was found to be 0.35 nM in experiment [2] (read-out: JAK2 Ki) and 0.29 nM in experiment [3].

Consider `O=C(Nc1cn(CC(=O)N2CCC(CN3CCOCC3)CC2)nc1-c1cc2sccc2cc1OC(F)F)c1cnn2cccnc12` [Example 65, N-[3-[5-(difluoromethoxy)benzothiophen-6-yl]-1-[2-[4-(morpholinomethyl)-1-piperidyl]-2-oxo-ethyl]pyrazol-4-yl]pyrazolo[1,5-a]pyrimidine-3-carboxamide], for which the 50% inhibitory concentration (IC50) in experiment [1] (setting [4]) worked out at 13 nM. In addition, the inhibitory constant (Ki) in experiment [2] (read-out: JAK2 Ki) came to 0.6 nM; in experiment [3], 0.41 nM.

On to `O=C(Nc1cn(CC(=O)N2CCC(N3CCOCC3)CC2)nc1-c1cc2sccc2cc1OC(F)F)c1cnn2cccnc12` [Example 66, N-[3-[5-(difluoromethoxy)benzothiophen-6-yl]-1-[2-(4-morpholino-1-piperidyl)-2-oxo-ethyl]pyrazol-4-yl]pyrazolo[1,5-a]pyrimidine-3-carboxamide], for which the IC50 in experiment [1] (setting [4]) stood at 21 nM. Besides, the figures for the inhibition constant (Ki) in experiment [2] (read-out: JAK2 Ki) and in experiment [3] were 0.49 nM and 0.3 nM, respectively.

On to `CCN1CCN(C(=O)Cn2cc(NC(=O)c3cnn4cccnc34)c(-c3cc4ccccc4cc3OC(F)F)n2)CC1` [Example 67, N-[3-[3-(difluoromethoxy)-2-naphthyl]-1-[2-(4-ethylpiperazin-1-yl)-2-oxo-ethyl]pyrazol-4-yl]pyrazolo[1,5-a]pyrimidine-3-carboxamide], for which the IC50 in experiment [1] (setting [4]) turned out to be 53 nM. In addition, the Ki in experiment [2] was 4.07 nM; in experiment [3], 2.11 nM.

Take `O=CN1CCN(C(=O)Cn2cc(NC(=O)c3cnn4cccnc34)c(-c3cc4ccccc4cc3OC(F)F)n2)CC1` [Example 68, N-[3-[3-(difluoromethoxy)-2-naphthyl]-1-[2-(4-formylpiperazin-1-yl)-2-oxo-ethyl]pyrazol-4-yl]pyrazolo[1,5-a]pyrimidine-3-carboxamide]: in experiment [1] (setting [4]), the IC50 is 35 nM. Further, the figures for the Ki in experiment [2] and in experiment [3] were 1.62 nM and 0.88 nM, respectively.

As to `CN(C)C(=O)CN1CCN(C(=O)Cn2cc(NC(=O)c3cnn4cccnc34)c(-c3cc4ccccc4cc3OC(F)F)n2)CC1` [Example 69, N-[3-[3-(difluoromethoxy)-2-naphthyl]-1-[2-[4-[2-(dimethylamino)-2-oxo-ethyl]piperazin-1-yl]-2-oxo-ethyl]pyrazol-4-yl]pyrazolo[1,5-a]pyrimidine-3-carboxamide], in experiment [1] (setting [4]), the IC50 is 152 nM. For the same compound, the Ki in experiment [2] (read-out: JAK2 Ki) is 0.94 nM; in experiment [3], 0.44 nM.

For `CC(C)(C)OC(=O)N1CCN(C(=O)Cn2cc(NC(=O)c3cnn4cccnc34)c(-c3cc4ccccc4cc3OC(F)F)n2)CC1` [Example 70, tert-butyl 4-[2-[3-[3-(difluoromethoxy)-2-naphthyl]-4-(pyrazolo[1,5-a]pyrimidine-3-carbonylamino)pyrazol-1-yl]acetyl]piperazine-1-carboxylate], in experiment [1] (setting [4]), the IC50 came out at 25 nM. Further, the Ki in experiment [2] (read-out: JAK2 Ki) worked out at 1.16 nM; in experiment [3], 0.35 nM.

As to `O=C(Nc1cn(CC(=O)N2CCNCC2)nc1-c1cc2ccccc2cc1OC(F)F)c1cnn2cccnc12` [Example 71, N-[3-[3-(difluoromethoxy)-2-naphthyl]-1-(2-oxo-2-piperazin-1-yl-ethyl)pyrazol-4-yl]pyrazolo[1,5-a]pyrimidine-3-carboxamide], the half-maximal inhibitory concentration (IC50) in experiment [1] (setting [4]) was 78 nM. The inhibition constant Ki in experiment [2] (read-out: JAK2 Ki) came to 1.6 nM; in experiment [3], 0.86 nM.

Consider `CN1CCC[C@@H]1Cn1cc(NC(=O)c2cnn3cccnc23)c(-c2cc3c(cc2OC(F)F)NCCS3)n1` [Example 72, N-[3-[6-(difluoromethoxy)-3,4-dihydro-2H-1,4-benzothiazin-7-yl]-1-[[(2R)-1-methylpyrrolidin-2-yl]methyl]pyrazol-4-yl]pyrazolo[1,5-a]pyrimidine-3-carboxamide], for which, in experiment [1] (setting [4]), the IC50 came to 10 nM. In addition, the Ki in experiment [2] (read-out: JAK2 Ki) and in experiment [3] was 0.22 nM throughout.
